Assay results reported in patent publication US10640545B2 (THE GOVERNORS OF THE UNIVERSITY OF ALBERTA, priority 2017, dated 2020).
Where a SMILES comes first, the peptide text is derived from it. [ ]: non-standard residue; d: D form. Phe(4-Br) = N[C@@H](Cc1ccc(Br)cc1)C(=O)O; NMeL = CN[C@@H](CC(C)C)C(=O)O; Nle = CCCC[C@H](N)C(=O)O; Aib = CC(C)(N)C(=O)O

How the values were obtained:
[1] = molecular target: Human plasma kallikrein KLKB1 (Homo sapiens, UniProt P03952); test: Plasma kallikrein KLKB1 qualitative cleavage assay (MALDI-TOF); settings: KLKB1, 37° C., first degradation products by MALDI-TOF
[2] = in vitro; settings: human, plasma
[3] = system: Ldlr^−/− mice; test: Angiotensin II-induced abdominal aortic aneurysm; assay type: in vivo
Method: Experimental Animals and Protocols. Male LDL receptor deficient (Ldlr^−/−) mice were generated and bred in C57BL/6 background. All animal experiments were carried out in accordance with the Canadian Council on Animal Care Guidelines, and animal protocols were reviewed and approved by the Animal Care and Use Committee at the University of Alberta.
Alzet micro-osmotic pump (model 1002 or 1004; Durect Co.) was implanted subcutaneously at the dorsum of the neck to infuse Ang II (1.5 mg/kg^−1d^−1) or vehicle (saline) for 28 days in high fat fed Ldlr^−/− mice.
After 4 weeks of Ang II or saline infusion, mice underwent whole body perfuse-fixation, via the left ventricle, with 10% buffered formalin (80 mmHg, 20 min). […] Collagen positive area was quantified by the morphometric analysis using the Metamorph Basic (version 7.7.0.0) software. In situ DNA fragmentation was detected in 5-μm thick FFPE sections of aorta using the commercially available terminal deoxynucleotidyl transferase-mediated dUTP nick-end labeling (TUNEL) assay kit according to manufacturer's instructions (Invitrogen) as previously described. […] Thickness of the medial layer of the aorta was measured in calibrated images as the mean distance between the external elastin lamella and the internal elastin lamella from 8 randomly selected fields of the cross-section of an aorta using the Metamorph Basic software (version 7.7.0). […]

[4] = system: isolated rat hearts; test: Langendorff isolated heart, ischemia-reperfusion injury; settings: ex vivo heart, 30 min ischemia
Method: The ex vivo heart was assessed for a variety of parameters (heart rate (HR); left ventricle developed pressure (LVDP); maximum derivative of change in systolic pressure over time (max dP/dt); minimum derivative of change in diastolic pressure over time (min dP/dt); and rate-pressure product (RPP)) indicative of general heart function and performance (FIG. 11).
Langendorff heart perfusion and ischemia-reperfusion injury were prepared and cardiac function was measured. Mice were heparinized and anaesthetized with 1.5-2% isoflurane inhalation. The heart was excised, mounted on a Langendorff system, and perfused at a consistent pressure of 80 mmHg with modified Krebs-Henseleit solution (116 mM NaCl, 3.2 mM KCl, 2.0 mM CaCl2), 1.2 mM MgSO4, 25 mM NaHCO3, 1.2 mM KH2PO4, 11 mM glucose, 0.5 mM EDTA and 2 mM pyruvate), which was kept at 37° C. and continuously oxygenated with 95% O2 and 5% CO2 which maintained the perfusion buffer at pH 7.4. After stabilization and 10 min baseline recording, global ischemia was induced for 30 min followed by 40 min of reperfusion. Apelin 17 (2) or apelin peptides (11, 17, 18, or 19) were given at the start of reperfusion for 10 min at a concentration of 1 pM. Left ventricular functions were obtained continuously by PowerLab system (ADInstruments, Australia). Data was reported as mean value of every 5 min. Left ventricular functions were reported as: Left Ventricular Developed Pressure (LVDP); Heart rate (HR); maximum derivative of change in systolic pressure over time (max dP/dt); minimum derivative of change in diastolic pressure over time (min dP/dt); and Rate Pressure Product (RPP).

[5] = molecular target: NEP (Homo sapiens, UniProt P08473); test: Neprilysin inhibition assay (degradation of 1 after preincubation with peptide); assay type: biochemical; parameters: purchased Sino Biological; settings: preincubation of NEP with equimolar peptide
Method: This experiment investigates the ability of synthetic peptides 8-19 to inhibit the inherent proteolytic activity of NEP.
Assays were performed in duplicate (n=2) for each time point.

[6] = molecular target: T1, KLKB1 (plasma kallikrein) (Homo sapiens, UniProt P03952); test: In vitro KLKB1 stability (half-life); assay type: in vitro ADME; settings: human
T1 construct: purchased Novoprotein
T1 sequence (P03952 20-638): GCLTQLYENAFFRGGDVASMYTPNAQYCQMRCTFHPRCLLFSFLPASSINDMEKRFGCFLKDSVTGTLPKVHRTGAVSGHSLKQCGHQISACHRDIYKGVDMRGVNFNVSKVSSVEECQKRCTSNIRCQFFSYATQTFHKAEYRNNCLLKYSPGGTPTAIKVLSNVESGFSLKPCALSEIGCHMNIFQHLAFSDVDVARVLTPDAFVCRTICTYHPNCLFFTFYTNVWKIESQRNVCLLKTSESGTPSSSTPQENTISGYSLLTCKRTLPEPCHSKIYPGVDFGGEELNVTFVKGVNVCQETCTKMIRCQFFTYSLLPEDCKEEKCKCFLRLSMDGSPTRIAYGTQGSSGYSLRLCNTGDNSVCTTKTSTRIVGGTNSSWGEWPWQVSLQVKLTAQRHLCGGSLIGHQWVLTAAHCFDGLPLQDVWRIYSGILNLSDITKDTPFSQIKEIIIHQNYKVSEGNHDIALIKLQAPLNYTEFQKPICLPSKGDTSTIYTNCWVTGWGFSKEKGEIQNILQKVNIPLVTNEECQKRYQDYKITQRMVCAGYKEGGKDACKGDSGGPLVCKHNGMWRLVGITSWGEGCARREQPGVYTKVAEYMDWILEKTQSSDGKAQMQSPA

Chain of Human plasma kallikrein KLKB1 (P03952 20-638): as above
Chain of NEP (P08473 whole entry): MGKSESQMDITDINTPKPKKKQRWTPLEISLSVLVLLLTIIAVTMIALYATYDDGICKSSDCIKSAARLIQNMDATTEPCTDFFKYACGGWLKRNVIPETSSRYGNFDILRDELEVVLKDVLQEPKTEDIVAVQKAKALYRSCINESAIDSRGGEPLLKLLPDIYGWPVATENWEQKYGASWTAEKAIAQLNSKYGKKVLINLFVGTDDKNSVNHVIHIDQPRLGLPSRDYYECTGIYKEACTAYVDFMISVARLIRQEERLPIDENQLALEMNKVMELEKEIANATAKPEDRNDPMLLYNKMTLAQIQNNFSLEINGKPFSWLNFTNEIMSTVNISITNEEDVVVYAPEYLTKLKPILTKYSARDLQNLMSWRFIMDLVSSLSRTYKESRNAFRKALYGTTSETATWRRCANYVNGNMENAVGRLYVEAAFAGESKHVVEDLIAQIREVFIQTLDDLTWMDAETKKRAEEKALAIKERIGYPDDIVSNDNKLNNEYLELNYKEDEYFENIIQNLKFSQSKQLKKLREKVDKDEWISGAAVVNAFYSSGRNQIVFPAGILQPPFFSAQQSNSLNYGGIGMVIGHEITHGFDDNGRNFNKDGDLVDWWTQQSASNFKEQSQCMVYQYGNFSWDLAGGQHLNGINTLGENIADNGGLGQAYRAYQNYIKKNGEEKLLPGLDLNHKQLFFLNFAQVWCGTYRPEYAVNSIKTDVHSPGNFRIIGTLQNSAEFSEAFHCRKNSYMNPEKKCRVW

Degradation Onset Timepoint with KLKB1 [1] [min]	remaining at 0.5 h, 80 µM [2] [%]	remaining at 1 h, 80 µM [2] [%]	half-life [6] [min]	Compound	oxidative stress (DHE fluorescence and NADPH oxidase activity) ([3]; aorta of Ldlr^−/− mice, Ang II + peptide)	formation of abdominal aortic aneurysm ([3]; high fat fed Ldlr^−/− mice, Ang II 1.5 mg/kg/d 28 days, peptide 3 mg/kg/d intraperitoneal 28 days)	ability to rescue the heart from ischemic reperfusion injury ([4]; peptide at start of reperfusion for 10 min at 1 pM)	max/min dP/dt, LVDP and RPP compared to native isoform 2 ([4]; reperfusion)	inhibition of the proteolytic activity of NEP [5]
<30				CSCC[C@H](NC(=O)[C@@H]1CCCN1C(=O)CNC(=O)[C@H](CCCCN)NC(=O)[C@H](Cc1cnc[nH]1)NC(=O)[C@H](CO)NC(=O)[C@H](CC(C)C)NC(=O)[C@H](CCCNC(=N)N)NC(=O)[C@@H]1CCCN1C(=O)[C@H](CCCNC(=N)N)NC(=O)[C@H](CCC(N)=O)NC(=O)[C@H](CCCNC(=N)N)NC(=O)[C@H](CCCNC(=N)N)NC(=O)[C@H](Cc1ccccc1)NC(=O)[C@@H](N)CCCCN)C(=O)N1CCC[C@H]1C(=O)N[C@@H](Cc1ccccc1)C(=O)O [Peptide 2, reference compound]					
	49 ± 10	47 ± 7	54	CCCC[C@H](NC(=O)[C@@H]1CCCN1C(=O)CNC(=O)[C@H](CCCCN)NC(=O)[C@H](Cc1c[nH]cn1)NC(=O)[C@H](CO)NC(=O)[C@H](CC(C)C)N(C)C(=O)[C@H](CCCNC(=N)N)NC(=O)[C@@H]1CCCN1C(=O)[C@H](CCCNC(=N)N)NC(=O)[C@H](CCC(N)=O)NC(=O)[C@H](CCCNC(=N)N)NC(=O)[C@H](CCCNC(=N)N)NC(=O)[C@H](Cc1ccccc1)NC(=O)[C@@H](N)CCCCN)C(=O)NC(C)(C)C(=O)N[C@@H](Cc1ccc(Br)cc1)C(=O)O [Peptide 11] (H-KFRRQRPR[NMeL]SHKGP[Nle][Aib][Phe(4-Br)]-OH; C-terminus assumed)	suppression of oxidative stress	markedly prevented the formation of abdominal aortic aneurysm	equivalent ability to rescue the heart from ischemic reperfusion injury compared to native isoform 2	slight improvement over the native isoform	no ability to inhibit the inherent activity of NEP
